Values quoted from earlier work as cited in patent US6551611B2, “Hormone replacement therapy method” (Schering Aktiengesellschaft, priority 1995, dated 2003).

Conditions: oral administration

bioavailability of estradiol orally, average: 5 % of the oral dose
SMILES: C[C@]12CC[C@@H]3c4ccc(O)cc4CC[C@H]3[C@@H]1CC[C@@H]2O [estradiol]
